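Protocol summary: plate cells (96-well), add compound at 5 concentrations, incubate 48 h, interpolate endpoints linearly. GI50: concentration for 50% inhibition of growth.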 Active and inactive are the calls of the source. Rule as the data show it: active = GI50 up to about 1.1 µM and inactive = higher.
Assays:
Test in all cases: growth of human tumour cells (NCI), 48 h
NCI/ADR-RES = test system: NCI/ADR-RES
COLO 205 = test system: COLO 205
SF-268 = test system: SF-268
786-0 = test system: 786-0
SNB-75 = test system: SNB-75
MDA-MB-435 = test system: MDA-MB-435
HCT-15 = test system: HCT-15
SK-MEL-5 = test system: SK-MEL-5
T47D = test system: T47D
MCF7 = test system: MCF7
OVCAR-4 = test system: OVCAR-4
HOP-62 = test system: HOP-62
TK-10 = test system: TK-10
K562 = test system: K562
IGROV-1 = test system: IGROV-1
NCI-H460 = test system: NCI-H460
DU-145 = test system: DU-145
LOX IMVI = test system: LOX IMVI
MDA-N = test system: MDA-N
MOLT-4 = test system: MOLT-4
SF-295 = test system: SF-295
OVCAR-3 = test system: OVCAR-3
U-251 = test system: U-251
HT-29 = test system: HT-29
UACC-62 = test system: UACC-62
EKVX = test system: EKVX
ACHN = test system: ACHN
SF-539 = test system: SF-539
KM12 = test system: KM12
BT-549 = test system: BT-549
PC-3 = test system: PC-3
UACC-257 = test system: UACC-257
SK-OV-3 = test system: SK-OV-3
NCI-H226 = test system: NCI-H226
A498 = test system: A498
A549 = test system: A549
Malme-3M = test system: Malme-3M
CAKI-1 = test system: CAKI-1
HL-60 = test system: HL-60
SW-620 = test system: SW-620
NCI-H522 = test system: NCI-H522
NCI-H23 = test system: NCI-H23
M14 = test system: M14
HCT-116 = test system: HCT-116
MDA-MB-231 = test system: MDA-MB-231
SNB-19 = test system: SNB-19
OVCAR-5 = test system: OVCAR-5
OVCAR-8 = test system: OVCAR-8
RPMI-8226 = test system: RPMI-8226
SN12C = test system: SN12C
CCRF-CEM = test system: CCRF-CEM
SK-MEL-28 = test system: SK-MEL-28
HOP-92 = test system: HOP-92
SR = test system: SR
SK-MEL-2 = test system: SK-MEL-2
RXF 393 = test system: RXF 393
HCC 2998 = test system: HCC 2998
UO-31 = test system: UO-31

Compound: COC(=O)C[C@@H]1C(C)(C)[C@@H]2O[C@@]34C[C@@H]2C(=O)[C@]1(C)[C@H]3CC[C@@]1(C)[C@H](c2ccoc2)OC(=O)C[C@]14O
- GI50 (NCI/ADR-RES): > 100 µM (inactive)
- GI50 (COLO 205): > 100 µM (inactive)
- GI50 (SF-268): > 100 µM (inactive)
- GI50 (786-0): > 100 µM (inactive)
- GI50 (SNB-75): > 100 µM (inactive)
- GI50 (MDA-MB-435): > 100 µM (inactive)
- GI50 (HCT-15): > 100 µM
- GI50 (SK-MEL-5): > 100 µM (inactive)
- GI50 (T47D): > 100 µM (inactive)
- GI50 (MCF7): > 100 µM (inactive)
- GI50 (OVCAR-4): > 100 µM (inactive)
- GI50 (HOP-62): > 100 µM (inactive)
- GI50 (TK-10): > 100 µM (inactive)
- GI50 (K562): > 100 µM (inactive)
- GI50 (IGROV-1): > 100 µM (inactive)
- GI50 (NCI-H460): > 100 µM (inactive)
- GI50 (DU-145): > 100 µM (inactive)
- GI50 (LOX IMVI): > 100 µM (inactive)
- GI50 (MDA-N): > 100 µM (inactive)
- GI50 (MOLT-4): > 100 µM (inactive)
- GI50 (SF-295): > 100 µM (inactive)
- GI50 (OVCAR-3): > 100 µM (inactive)
- GI50 (U-251): > 100 µM (inactive)
- GI50 (HT-29): > 100 µM (inactive)
- GI50 (UACC-62): > 100 µM (inactive)
- GI50 (EKVX): > 100 µM (inactive)
- GI50 (ACHN): > 100 µM (inactive)
- GI50 (SF-539): > 100 µM (inactive)
- GI50 (KM12): > 100 µM (inactive)
- GI50 (BT-549): > 100 µM (inactive)
- GI50 (PC-3): > 100 µM (inactive)
- GI50 (UACC-257): > 100 µM (inactive)
- GI50 (SK-OV-3): > 100 µM (inactive)
- GI50 (NCI-H226): > 100 µM (inactive)
- GI50 (A498): > 100 µM (inactive)
- GI50 (A549): > 100 µM (inactive)
- GI50 (Malme-3M): > 100 µM (inactive)
- GI50 (CAKI-1): > 100 µM (inactive)
- GI50 (HL-60): > 100 µM (inactive)
- GI50 (SW-620): > 100 µM (inactive)
- GI50 (NCI-H522): > 100 µM (inactive)
- GI50 (NCI-H23): > 100 µM (inactive)
- GI50 (M14): > 100 µM (inactive)
- GI50 (HCT-116): > 100 µM (inactive)
- GI50 (MDA-MB-231): > 100 µM (inactive)
- GI50 (SNB-19): 71.6 µM (inactive)
- GI50 (OVCAR-5): > 100 µM (inactive)
- GI50 (OVCAR-8): > 100 µM (inactive)
- GI50 (RPMI-8226): > 100 µM (inactive)
- GI50 (SN12C): > 100 µM (inactive)
- GI50 (CCRF-CEM): > 100 µM (inactive)
- GI50 (SK-MEL-28): > 100 µM (inactive)
- GI50 (HOP-92): > 100 µM (inactive)
- GI50 (SR): > 100 µM (inactive)
- GI50 (SK-MEL-2): > 100 µM (inactive)

Compound: N#CC(C#N)/N=C/c1ccncc1
- GI50 (NCI/ADR-RES): > 100 µM (inactive)
- GI50 (COLO 205): > 100 µM (inactive)
- GI50 (SF-268): > 100 µM (inactive)
- GI50 (786-0): > 100 µM (inactive)
- GI50 (SNB-75): > 100 µM (inactive)
- GI50 (MDA-MB-435): > 100 µM (inactive)
- GI50 (HCT-15): > 100 µM
- GI50 (SK-MEL-5): > 100 µM (inactive)
- GI50 (T47D): > 100 µM (inactive)
- GI50 (MCF7): > 100 µM (inactive)
- GI50 (RXF 393): > 100 µM (inactive)
- GI50 (OVCAR-4): > 100 µM (inactive)
- GI50 (HOP-62): > 100 µM (inactive)
- GI50 (TK-10): > 100 µM (inactive)
- GI50 (K562): > 100 µM (inactive)
- GI50 (IGROV-1): > 100 µM (inactive)
- GI50 (DU-145): > 100 µM (inactive)
- GI50 (LOX IMVI): > 100 µM (inactive)
- GI50 (MDA-N): > 100 µM (inactive)
- GI50 (MOLT-4): > 100 µM (inactive)
- GI50 (SF-295): > 100 µM (inactive)
- GI50 (OVCAR-3): > 100 µM (inactive)
- GI50 (U-251): > 100 µM (inactive)
- GI50 (HT-29): > 100 µM (inactive)
- GI50 (UACC-62): > 100 µM (inactive)
- GI50 (EKVX): > 100 µM (inactive)
- GI50 (ACHN): > 100 µM (inactive)
- GI50 (SF-539): > 100 µM (inactive)
- GI50 (KM12): > 100 µM (inactive)
- GI50 (BT-549): > 100 µM (inactive)
- GI50 (PC-3): > 100 µM (inactive)
- GI50 (UACC-257): > 100 µM (inactive)
- GI50 (SK-OV-3): > 100 µM (inactive)
- GI50 (HCC 2998): > 100 µM (inactive)
- GI50 (NCI-H226): > 100 µM (inactive)
- GI50 (A498): 95.9 µM (inactive)
- GI50 (A549): > 100 µM (inactive)
- GI50 (Malme-3M): > 100 µM (inactive)
- GI50 (CAKI-1): > 100 µM (inactive)
- GI50 (HL-60): 39 µM (inactive)
- GI50 (SW-620): > 100 µM (inactive)
- GI50 (NCI-H23): > 100 µM (inactive)
- GI50 (M14): > 100 µM (inactive)
- GI50 (HCT-116): > 100 µM (inactive)
- GI50 (MDA-MB-231): > 100 µM (inactive)
- GI50 (OVCAR-5): > 100 µM (inactive)
- GI50 (OVCAR-8): > 100 µM (inactive)
- GI50 (RPMI-8226): > 100 µM (inactive)
- GI50 (SN12C): > 100 µM (inactive)
- GI50 (CCRF-CEM): 28.7 µM (inactive)
- GI50 (SK-MEL-28): > 100 µM (inactive)
- GI50 (HOP-92): > 100 µM (inactive)
- GI50 (SK-MEL-2): > 100 µM (inactive)

Compound: COc1ccc2c(c1)CC1COc3cc(OC)ccc3C1O2 (configuration not stated)
- GI50 (NCI/ADR-RES): 72.6 µM (inactive)
- GI50 (COLO 205): > 100 µM (inactive)
- GI50 (SF-268): 52.5 µM (inactive)
- GI50 (786-0): 38.1 µM (inactive)
- GI50 (MDA-MB-435): > 100 µM (inactive)
- GI50 (HCT-15): > 100 µM
- GI50 (SK-MEL-5): 72.3 µM (inactive)
- GI50 (T47D): > 100 µM (inactive)
- GI50 (MCF7): > 100 µM (inactive)
- GI50 (HOP-62): > 100 µM (inactive)
- GI50 (TK-10): > 100 µM (inactive)
- GI50 (IGROV-1): > 100 µM (inactive)
- GI50 (DU-145): > 100 µM (inactive)
- GI50 (LOX IMVI): > 100 µM (inactive)
- GI50 (MDA-N): > 100 µM (inactive)
- GI50 (MOLT-4): > 100 µM (inactive)
- GI50 (SF-295): 77.3 µM (inactive)
- GI50 (OVCAR-3): > 100 µM (inactive)
- GI50 (U-251): 36.6 µM (inactive)
- GI50 (HT-29): 65.3 µM (inactive)
- GI50 (UACC-62): > 100 µM (inactive)
- GI50 (EKVX): > 100 µM (inactive)
- GI50 (SF-539): > 100 µM (inactive)
- GI50 (KM12): > 100 µM (inactive)
- GI50 (BT-549): 44.8 µM (inactive)
- GI50 (PC-3): 79.8 µM (inactive)
- GI50 (UACC-257): > 100 µM (inactive)
- GI50 (SK-OV-3): > 100 µM (inactive)
- GI50 (HCC 2998): > 100 µM (inactive)
- GI50 (NCI-H226): 23 µM (inactive)
- GI50 (A498): > 100 µM (inactive)
- GI50 (A549): > 100 µM (inactive)
- GI50 (Malme-3M): > 100 µM (inactive)
- GI50 (CAKI-1): > 100 µM (inactive)
- GI50 (SW-620): > 100 µM (inactive)
- GI50 (NCI-H522): 55 µM (inactive)
- GI50 (NCI-H23): > 100 µM (inactive)
- GI50 (M14): > 100 µM (inactive)
- GI50 (UO-31): > 100 µM (inactive)
- GI50 (HCT-116): > 100 µM (inactive)
- GI50 (MDA-MB-231): > 100 µM (inactive)
- GI50 (OVCAR-5): > 100 µM (inactive)
- GI50 (OVCAR-8): 71.8 µM (inactive)
- GI50 (RPMI-8226): > 100 µM (inactive)
- GI50 (SN12C): > 100 µM (inactive)
- GI50 (CCRF-CEM): > 100 µM (inactive)
- GI50 (HOP-92): > 100 µM (inactive)
- GI50 (SR): > 100 µM (inactive)
- GI50 (SK-MEL-2): > 100 µM (inactive)

Reference: ChEMBL document CHEMBL1201862, “PubChem BioAssay data set” (2004)
